Experimental data as given in PubChem BioAssay (NCI).
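Test compounds were applied to cells in 96-well plates for 48 hours at 5 doses. At the TGI there is no net growth.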

Assays:
Assay in all cases: inhibition of tumour cell growth, NCI panel, 48 h
MDA-MB-231 breast = tested on: MDA-MB-231 breast
786-0 renal = tested on: 786-0 renal
NCI-H226 lung = tested on: NCI-H226 lung
SF-539 CNS = tested on: SF-539 CNS
NCI-H522 lung = tested on: NCI-H522 lung
HOP-92 NSCLC = tested on: HOP-92 NSCLC
COLO 205 colon = tested on: COLO 205 colon
MCF7 breast = tested on: MCF7 breast
MOLT-4 leukemia = tested on: MOLT-4 leukemia
SF-295 CNS = tested on: SF-295 CNS
RXF 393 renal = tested on: RXF 393 renal

Row | Compound | TGI (MDA-MB-231 breast) | TGI (786-0 renal) | TGI (NCI-H226 lung) | TGI (SF-539 CNS) | TGI (NCI-H522 lung) | TGI (HOP-92 NSCLC) | TGI (COLO 205 colon) | TGI (MCF7 breast) | TGI (MOLT-4 leukemia) | TGI (SF-295 CNS) | TGI (RXF 393 renal)
1 | COc1ccc2c(c1)C(=O)c1ccccc1C2 | 76.3 µM | > 100 µM | > 100 µM | > 100 µM | > 100 µM | > 100 µM | > 100 µM | > 100 µM | > 100 µM | > 100 µM | 28.4 µM
2 | CCn1c(=O)c2c3cc(O)ccc3oc2c2ccc(O)cc21 | > 100 µM | > 100 µM | > 100 µM | 73 µM | 63.9 µM | 80.3 µM | 43.9 µM | > 100 µM | > 100 µM | > 100 µM | > 100 µM
3 | CC(=O)OCC1OC(n2c(=S)[nH]c(-c3ccccc3)c(C#N)c2=O)C(OC(C)=O)C(OC(C)=O)C1OC(C)=O (stereo not drawn) | > 100 µM | > 100 µM | > 100 µM | > 100 µM | > 100 µM | > 100 µM | > 100 µM | > 100 µM | > 100 µM | > 100 µM | > 100 µM
4 | O=[N+]([O-])C(=C(Sc1ccccc1)Sc1ccccc1)C(Cl)=C(Cl)Cl | 0.408 µM | 0.188 µM | 1.31 µM | 5.81 µM | 0.143 µM | 5.99 µM | 0.697 µM | 1.05 µM | 0.216 µM | 28.3 µM | 1.99 µM
5 | Brc1ccc2c3c1[C@@H]1O[C@@H]1c1cccc(c1-3)[C@@H]1O[C@H]21 | 65.8 µM | 51.1 µM | > 100 µM | 16.5 µM | 31.4 µM | 43.5 µM | 52.2 µM | > 100 µM | > 100 µM | 46 µM | 32.3 µM
6 | Cc1ccc(C2=Nc3c(c(C)nn3-c3ccccc3)N=C(C(=O)O)C2)cc1 | > 10 µM | > 10 µM | > 10 µM | > 10 µM | > 10 µM | > 10 µM | > 10 µM | > 10 µM | > 10 µM | > 10 µM | > 10 µM
7 | CC1=CC(=O)N(n2c(C)n[nH]c2=O)C1=O | > 100 µM | > 100 µM | > 100 µM | > 100 µM | > 100 µM | > 100 µM | > 100 µM | > 100 µM | > 100 µM | > 100 µM | > 100 µM
8 | O=c1c2cc(I)ccc2[nH]c(=S)n1Cc1ccccc1 | 66.3 µM | 63 µM | > 100 µM | 33.4 µM | 42.9 µM | 63.2 µM | > 100 µM | > 100 µM | > 100 µM | > 100 µM | 78 µM
9 | O=C1/C(=C/c2ccc([N+](=O)[O-])cc2)CNC/C1=C\c1ccc([N+](=O)[O-])cc1 | 20.2 µM | 3.18 µM | > 57.5 µM | 5.59 µM | 9.4 µM | 59 µM | 28.3 µM | > 100 µM | > 38 µM | 34.1 µM | 25.1 µM
10 | CC(C)/C(Cl)=N\OC(=O)NNc1ccccc1 | > 94.2 µM | > 100 µM | 99.7 µM | > 100 µM | 28.7 µM | 35.3 µM | 1.63 µM | > 100 µM | 17.7 µM | > 100 µM | > 100 µM
11 | O=C1C(Br)=Cc2c(Cl)sc(Cl)c21 | 8.91 µM | 5.09 µM | > 100 µM | 15.1 µM | 11.7 µM | 7 µM | 23.6 µM | 11.5 µM | 2.08 µM | > 66.4 µM | 6.17 µM
12 | Cc1oc2nc(N(C)C)n3nnnc3c2c1C | > 100 µM | > 100 µM | > 100 µM | > 100 µM | > 100 µM | > 100 µM | > 100 µM | > 100 µM | > 100 µM | > 100 µM | > 100 µM
13 | CN(O)C(=O)Cc1ccc(OCc2cccc(Cl)c2)cc1 | > 100 µM | > 100 µM | > 100 µM | > 100 µM | > 100 µM | > 100 µM | > 100 µM | > 100 µM | > 100 µM | > 100 µM | > 100 µM
